One assay relates to hPSCs. Kind of assay: Extended propagation and karyotype analysis. Type of assay: cell-based, human. How it is done:
hPSC culture—hPSC culture—hPSC lines HES-1, HES-2 (10), HADC100, HADC102 (36) and H7 (9) were cultured on human foreskin feeders in serum free medium as described (30, 87). hPSC culturing in suspension was performed as reported (31) with minor modifications of the culture medium that was composed of Neurobasal medium, 14% KO-SR, L-glutamine 2 mM, 50 units/ml penicillin, 50 μg/ml streptomycin, 1% nonessential amino acids (all from Invitrogen, Carlsbad, Calif., USA). The medium was supplemented with FGF2 20 ng/ml, and activin A 25 ng/ml (both from Peprotech, Rocky Hill, N.J., USA), and laminin 0.5 μg/ml (Sigma-Aldrich, St. Louis, Mo., USA). For hPSC culturing on mouse LN111, 3-D Culture Matrix Laminin I (CULTREX, TREVIGEN, #3446-005-01, Gaithersburg, Md., USA) was diluted to a concentration of 1 mg/ml. Tissue culture dishes were coated with LN111, incubated overnight at 37° C. to promote matrix gelling, and washed with PBS. hPSCs were cultured on LN111 in a chemically defined medium composed of DMEM/F12, B27 supplement (1:50), N2 supplement (1:100) 2 mM L-glutamine, 50 units/ml penicillin, 50 μg/ml streptomycin (all from Invitrogen), and supplemented with 20 ng/ml bFGF (Peprotech). The cells were cultured in 5% CO2, 5% O2 incubator They were passaged every 7 days as small clusters by treatment with 1 mg/ml collagenase type IV (Invitrogen), and plated in a medium containing 5 μM ROCK inhibitor. hPSC culture under naïve conditions was performed using the 5iLFA protocol (20).
Alkaline phosphatase activity detection and karyotyping—Detection of alkaline phosphatase activity was performed on hPSC colonies using the Alkaline Phosphatase Staining Kit II (Stemgent, Cambridge, Mass., USA) according to the manufacturer's instructions. Karyotype analysis, was performed on 3-4 day hPSC colonies.

In the next assay the test system is LN-hPSCs. Kind of assay: FACS analysis of pluripotency cell-surface markers. Type of assay: cell-based, human. To be noted: HES-1 cells cultured on LN111. How it is done:
Signaling pathways analysis—hPSCs were cultured on LN111 for 2 days in complete medium, and then for additional 3-5 days in a medium+/−FGF2 in the presence of the following small molecules: PD032590 1 μM (Peprotech), LY294002 10 μM, SB431542 10 μM, CHIR99021 3 μM (all from Cayman Chemical, Michigan, USA), XAV939 2.5 μM (Peprotech), BMP4 50 ng/ml (Biogems-Peprotech). FACS analysis—FACS analyses were performed using the following primary antibodies: mouse IgM anti-TRA-1-60 (1:100; mab4360, R&D), and mouse IgM anti-TRA-1-81 (1:100; mab4381, R&D), and Rat IgM anti-SSEA-3. Staining with respective isotype control antibodies (all from eBiosciences) served as controls. Detection of primary antibodies was performed using the following secondary antibodies: FITC-conjugated Polyclonal Goat Anti-Mouse Immunoglobulins (1:100; Dako, Glostrup, Denmark), APC-conjugated Goat anti-Mouse IgM/G (1:200; Cat. No. 1020-11, SouthernBiotech, Birmingham, Ala., USA), and APC-conjugated anti-Rat (1:200; eBioscience). FACS analysis was performed on a FACScalibur system (Becton-Dickinson, San Jose, Calif.) using the Cellquest software. A detailed FACS procedure is described elsewhere. FACS analysis—FACS analyses for pluripotency marker expression were performed using mouse anti-TRA-1-60 (1:100; mab4360, R&D), and mouse anti-TRA-1-81 (1:100; mab4381, R&D). […]

Take “LN111: mouse LN111, 3-D Culture Matrix Laminin I (CULTREX, TREVIGEN), coating of culture dishes”: the figures for the extended undifferentiated propagation in the assay on hPSCs (HADC100) and in the assay with hPSCs (HADC102) were 6 passages and 8 passages, respectively. Further, the “passages propagated while maintaining a normal karyotype” value with hPSCs (HES-1 cells) is “at least 10 passages”. The “cells expressing TRA-1-60 and TRA-1-81” value in the assay on LN-hPSCs is on record as “over 90%”.

Values taken from patent US12467038B2, “Methods of culturing human pluripotent cells” (Hadasit Medical Research Services and Development Ltd., priority 2019, dated 2025).
